In PMC6271771, “4-Amino-substituted Benzenesulfonamides as Inhibitors of Human Carbonic Anhydrases” (Molecules, 2014):
pKd: −log10 of the molar value. Where “and” joins values, the source holds several entries; their conditions need not be identical. Equal values may be shown once. Read-outs that look alike come from different tables or passages of the source.

Tests used:
CA VII = target: T1, CA VII (Homo sapiens, UniProt P43166); assay: Fluorescent thermal shift assay (FTSA), CA VII; format: binding
T1 construct: made in house

CA II = target: T2, CA II (Homo sapiens, UniProt P00918); assay: Fluorescent thermal shift assay (FTSA), CA II; format: binding; conditions: pH 7.0, 37 °C, read-out: Compound Dissociation Constants Kd for CA II
T2 construct: made in house

CA VI = target: T3, CA VI (Homo sapiens, UniProt P23280); assay: Fluorescent thermal shift assay (FTSA), CA VI; format: binding; conditions: FTSA, pH 7.0, 37 °C; read-out: Compound Dissociation Constants Kd for CA VI
T3 construct: made in house

CA XIII = target: T4, CA XIII (Homo sapiens, UniProt Q8N1Q1); assay: Fluorescent thermal shift assay (FTSA), CA XIII; format: binding; conditions: FTSA, pH 7.0, 37 °C; read-out: Compound Dissociation Constants Kd for CA XIII
T4 construct: made in house

CA XII = target: T5, CA XII (Homo sapiens, UniProt O43570); assay: Fluorescent thermal shift assay (FTSA), CA XII; format: binding; conditions: FTSA, pH 7.0, 37 °C; read-out: Compound Dissociation Constants Kd for CA XII
T5 construct: made in house

CA I = target: T6, CA I (Homo sapiens, UniProt P00915); assay: Fluorescent thermal shift assay (FTSA), CA I; format: binding
T6 construct: made in house

[1] = FTSA, pH 7.0, 37 °C, read-out: Compound Dissociation Constants Kd for CA VII
[2] = FTSA, pH 7.0, 37 °C, read-out: Compound Dissociation Constants Kd for CA I

T5 sequence (O43570 30-289 limits assumed): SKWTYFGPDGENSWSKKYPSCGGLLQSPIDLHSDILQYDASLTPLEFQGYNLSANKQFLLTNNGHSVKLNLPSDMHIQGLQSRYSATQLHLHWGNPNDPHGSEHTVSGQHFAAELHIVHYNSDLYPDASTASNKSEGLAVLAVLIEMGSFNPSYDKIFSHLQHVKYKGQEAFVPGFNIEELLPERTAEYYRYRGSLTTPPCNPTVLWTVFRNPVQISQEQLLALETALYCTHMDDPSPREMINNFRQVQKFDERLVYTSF
T3 sequence (P23280 18-308): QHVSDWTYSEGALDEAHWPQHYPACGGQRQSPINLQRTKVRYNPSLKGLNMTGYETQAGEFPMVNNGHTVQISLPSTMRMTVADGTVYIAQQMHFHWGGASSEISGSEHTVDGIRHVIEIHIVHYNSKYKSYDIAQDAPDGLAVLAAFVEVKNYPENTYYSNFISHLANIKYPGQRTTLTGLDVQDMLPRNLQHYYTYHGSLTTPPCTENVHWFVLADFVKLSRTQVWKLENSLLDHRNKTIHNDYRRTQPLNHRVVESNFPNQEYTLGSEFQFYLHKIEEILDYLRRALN
T1 sequence (P43166 whole entry): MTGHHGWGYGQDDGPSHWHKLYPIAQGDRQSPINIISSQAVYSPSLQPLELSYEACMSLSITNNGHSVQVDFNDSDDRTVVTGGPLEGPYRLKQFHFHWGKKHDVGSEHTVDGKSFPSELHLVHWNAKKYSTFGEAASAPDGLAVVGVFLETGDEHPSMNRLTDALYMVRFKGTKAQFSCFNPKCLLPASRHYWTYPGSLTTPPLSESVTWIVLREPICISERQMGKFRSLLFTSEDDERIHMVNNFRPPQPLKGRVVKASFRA
T6 sequence (P00915 whole entry): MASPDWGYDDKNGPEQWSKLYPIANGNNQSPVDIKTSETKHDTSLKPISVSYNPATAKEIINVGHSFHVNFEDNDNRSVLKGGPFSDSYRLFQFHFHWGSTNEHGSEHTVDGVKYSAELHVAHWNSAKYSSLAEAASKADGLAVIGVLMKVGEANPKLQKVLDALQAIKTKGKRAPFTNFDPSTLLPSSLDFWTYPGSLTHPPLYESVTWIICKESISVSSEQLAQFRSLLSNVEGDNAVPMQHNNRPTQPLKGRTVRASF
T4 sequence (Q8N1Q1 whole entry): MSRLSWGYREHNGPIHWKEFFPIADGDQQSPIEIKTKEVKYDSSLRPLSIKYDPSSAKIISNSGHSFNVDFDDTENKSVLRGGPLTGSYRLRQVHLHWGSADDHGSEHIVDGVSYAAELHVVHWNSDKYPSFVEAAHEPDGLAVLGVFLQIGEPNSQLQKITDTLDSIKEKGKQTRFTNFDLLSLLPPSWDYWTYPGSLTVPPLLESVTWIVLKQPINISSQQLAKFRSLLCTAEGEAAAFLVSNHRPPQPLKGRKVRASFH

SMILES | pKd (CA VII; [1]) | pKd (CA II) | pKd (CA VI) | pKd (CA XIII) | pKd (CA XII) | pKd (CA I; [2]) | melting point [°C] | pKd (CA VII) | pKd (CA I) | selectivity: bound to CA I times stronger than to CA II (CA I; ratio of FTSA Kd) [times] | selectivity: bound to CA I times stronger than to CA VI (CA I; ratio of FTSA Kd) [times] | selectivity: bound to CA I times stronger than to CA VII (CA I; ratio of FTSA Kd) [times] | selectivity: bound to CA I times stronger than to CA XII (CA I; ratio of FTSA Kd) [times] | selectivity: bound to CA I times stronger than to CA XIII (CA I; ratio of FTSA Kd) [times] | CA I binding in the presence (32) versus absence (34) of the diazo group (CA I; comparison of Kd of 32 and 34) | times more weakly bound to CA I than SA (CA I; ratio of Kd, FTSA) [times]
NS(=O)(=O)c1ccc(NCCc2n[nH]c(=S)o2)cc1 [Compound 24, 4-{[2-(5-Sulfanylidene-4,5-dihydro-1,3,4-oxadiazol-2-yl)ethyl]amino}benzene-1-sulfonamide] | 5.34 | 5.34 | 4.48 | 4.58 | 5.23 | 4.90 | – | – | – | – | – | – | – | – | – | –
NS(=O)(=O)c1ccccc1 [BSA, benzenesulfonamide] | – | – | 4.85 | – | – | – | – | – | – | – | – | – | – | – | – | –
NS(=O)(=O)c1ccc(N2CCC(=O)NC2=O)cc1 [Compound 5, 4-(2,4-Dioxo-1,3-diazinan-1-yl)benzene-1-sulfonamide] | 5.81 | 6.08 | 4.90 | 5.08 | 5.25 | 5.41 | – | – | – | – | – | – | – | – | – | –
CC(C)=NNC(=O)CCNc1ccc(S(N)(=O)=O)cc1 [Compound 11, 4-{[2-(N'-Propan-2-ylidenehydrazinecarbonyl)ethyl]amino}benzene-1-sulfonamide] | 4.54 | 5.15 | 4.15 | 4.30 | 4.48 | 4.34 | 216 to 217 | – | – | – | – | – | – | – | – | –
COC(=O)CCNc1ccc(S(N)(=O)=O)cc1 [Compound 7, Methyl-3-[(4-sulfamoylphenyl)amino]propanoate] | – | 5.04 | 4.15 | 4.23 | 4.48 | – | – | 4.45 | 4.45 | – | – | – | – | – | – | –
NS(=O)(=O)c1ccc(NCCC(=O)NNC(=S)Nc2ccccc2)cc1 [Compound 21, N-[(Phenylcarbamothioyl)amino]-3-[(4-sulfamoylphenil)amino]propanamide] | 5.25 | 5.40 | 5.08 | 5.04 | 5.25 | 5.04 | – | – | – | – | – | – | – | – | – | –
NS(=O)(=O)c1ccc(NCCC(=O)NN=Cc2ccc(Cl)cc2)cc1 [Compound 15, 4-[(2-{N'-[(4-Chlorophenyl)methylidene]hydrazinecarbonyl}ethyl]amino)benzene-1-sulfonamide] | 4.90 | 5.70 | 5.17 | 5.08 | 4.48 | 4.90 | 226 to 227 | – | – | – | – | – | – | – | – | –
NS(=O)(=O)c1ccc(NCCC(=O)NN=Cc2ccc([N+](=O)[O-])cc2)cc1 [Compound 17, 4-[(2-{N′-[(4-Nitrophenyl)methylidene]hydrazinecarbonyl]ethyl)amino]benzene-1-sulfonamide] | 4.60 | 5.44 | 4.60 | 4.30 | 4.17 | 4.70 | 227 to 228.5 | – | – | – | – | – | – | – | – | –
NS(=O)(=O)c1ccc(/N=N/N2CCCCC2)cc1 [Compound 30] | 6.92 | 7.20 | 5.00 | 7.18 | 6.11 | 8.18 | – | – | – | 9.4 | 1500 | 18 | 115 | 10 | – | –
NC(=S)NNC(=O)CCNc1ccc(S(N)(=O)=O)cc1 [Compound 9, N-(Carbamothioylamino)-3-[(4-sulfamoylphenyl)amino]propanamide] | 4.54 | 5.00 | 4.30 | 4.11 | 4.48 | 4.23 | – | – | – | – | – | – | – | – | – | –
CC(=NNC(=O)CCNc1ccc(S(N)(=O)=O)cc1)c1ccccc1 [Compound 12, 4-{(2-[N'-(1-Phenylethylidene)hydrazinecarbonyl]ethyl}amino]benzene-1-sulfonamide] | 4.90 | 5.73 | 4.60 | 5.25 | 4.48 | 4.81 | 185 to 186 | – | – | – | – | – | – | – | – | –
NS(=O)(=O)c1ccc(NCCC(=O)NNC(=O)Nc2ccccc2)cc1 [Compound 20, N-[(Phenylcarbamoyl)amino]-3-[(4-sulfamoylphenyl)amino]propanamide] | 4.90 | 5.40 | 5.15 | 4.73 | 5.73 | 4.54 | – | – | – | – | – | – | – | – | – | –
NS(=O)(=O)c1ccc(NCCC(=O)NN=C(c2ccccc2)c2ccccc2)cc1 [Compound 13, 4-({2-[N'-(Diphenylmethylidene)hydrazinecarbonyl]ethyl}amino)benzene-1-sulfonamide] | 4.78 | 5.84 | 4.60 | 5.36 | 4.30 | 4.94 | 170 to 171 | – | – | – | – | – | – | – | – | –
NS(=O)(=O)c1ccc(/N=N/SCCO)cc1 [Compound 32] | 6.54 | 7.18 | 5.49 | 5.85 | 5.70 | 7.48 | – | – | – | – | – | – | – | – | about six-fold stronger | –
CCN(CC)/N=N/c1ccc(S(N)(=O)=O)cc1 [Compound 27] | 6.70 | 7.15 | 4.88 | 7.00 | 6.23 | 7.88 | – | – | – | – | – | – | – | – | – | –
NNC(=O)CCNc1ccc(S(N)(=O)=O)cc1 [Compound 8, 4-{[(2-Hydrazinecarbonyl)ethyl]amino}benzene-1-sulfonamide] | 4.54 | 4.98 | 4.20 | 4.11 | 4.48 | 4.25 | – | – | – | – | – | – | – | – | – | –
CCSc1nnc(CCNc2ccc(S(N)(=O)=O)cc2)o1 [Compound 25, 4-({2-[5-(Ethylsulfanyl)-1,3,4-oxadiazol-2-yl]ethyl}amino)benzene-1-sulfonamide] | 5.25 | 5.93 | 4.54 | 5.48 | 4.98 | 5.23 | – | – | – | – | – | – | – | – | – | –
NCCS/N=N/c1ccc(S(N)(=O)=O)cc1 [Compound 33] | 6.00 | 6.56 | 5.08 | 5.54 | 5.20 | 6.30 | – | – | – | – | – | – | – | – | – | –
NS(=O)(=O)c1ccc(/N=N/N2CCCC2)cc1 [Compound 28] | 6.34 | 6.88 | 4.88 | 6.78 | 5.74 | 7.48 | – | – | – | – | – | – | – | – | – | –
NS(=O)(=O)c1ccc(NCCc2n[nH]c(=S)n2-c2ccccc2)cc1 [Compound 23, 4-{[2-(4-Phenyl-5-sulfanylidene-4,5-dihydro-1H-1,2,4-triazol-3-yl)ethyl]amino}benzene-1-sulfonamide] | 5.18 | 5.70 | 4.95 | 5.00 | 5.18 | 5.00 | 253 to 254 | – | – | – | – | – | – | – | – | –
Cc1ccc(C)n1NC(=O)CCNc1ccc(S(N)(=O)=O)cc1 [Compound 19] | 4.95 | 5.70 | 4.60 | 5.20 | 4.54 | 4.78 | – | – | – | – | – | – | – | – | – | –
CN(C)c1ccc(/C=N/NC(=O)CCNc2ccc(S(N)(=O)=O)cc2)cc1 [Compound 16] | 4.60 | 5.08 | 4.30 | 4.25 | 4.48 | 4.43 | 179 to 180.5 | – | – | – | – | – | – | – | – | –
NS(=O)(=O)c1ccc(NCCC(=O)O)cc1 [Compound 3, 3-[(4-Sulfamoylphenyl)amino]propanoic Acid] | 4.65 | 4.90 | 4.20 | 4.48 | 5.02 | 4.40 | – | – | – | – | – | – | – | – | – | –
Nc1nnc(CCNc2ccc(S(N)(=O)=O)cc2)s1 [Compound 10, 4-{[2-(5-Amino-1,3,4-thiadiazol-2-yl)ethyl]amino}benzene-1-sulfonamide] | 4.00 | 4.70 | 3.85 | 4.08 | 3.89 | 3.77 | – | – | – | – | – | – | – | – | – | 1.7
NS(=O)(=O)c1ccc(N2CCC(=O)NC2=S)cc1 [Compound 6, 4-(4-Oxo-2-sulfanylidene-1,3-diazinan-1-yl)benzene-1-sulfonamide] | 5.79 | 6.17 and 6.18 | 5.08 | 5.54 | 5.25 | 5.95 | – | – | – | – | – | – | – | – | – | –
NS(=O)(=O)c1ccc(/N=N/N2CCOCC2)cc1 [Compound 29] | 6.40 | 7.00 | 4.93 | 6.65 | 5.48 | 7.54 | – | – | – | – | – | – | – | – | – | –
CCSC(=NS(=O)(=O)c1ccc(NCCC(=O)O)cc1)SCC [Compound 4, 3-[(4-{[Bis(ethylthio)methylene]sulfamoyl}phenyl)amino]propanoic Acid] | < 3.70 | 4.40 | < 3.70 | < 3.70 | < 3.70 | < 3.70 | – | – | – | – | – | – | – | – | – | –
NS(=O)(=O)c1ccc(NCCC(=O)N/N=C/c2ccc(Br)cc2)cc1 [Compound 14, 4-[(2-{N'-[(4-Bromphenyl)methylidene]hydrazinecarbonyl}ethyl)amino]benzene-1-sulfonamide] | 5.23 | 5.74 | 5.15 | 5.15 | 4.50 | 4.90 | 218 to 219 | – | – | – | – | – | – | – | – | –
CN(C)/N=N/c1ccc(S(N)(=O)=O)cc1 [Compound 26] | 6.11 | 6.74 | 4.88 | 6.40 | 5.57 | 7.00 | – | – | – | – | – | – | – | – | – | –
